Laboratory results reported in US11028075B2, “Therapeutic compounds and methods of use thereof” (GENENTECH, INC., priority 2018, dated 2021).
Structures can show the parent of a compound that is named as a salt.

What was measured:
hNav1.7 [1] = biological target: T1, hNav1.7 (Homo sapiens (Human), UniProt Q15858); assay: Tritiated compound binding to membranes from cells heterologously expressing hNav1.7 and the β1 subunit (Nav1.7 LBA); conditions: competitive binding vs [3H]compound, membranes with hNav1.7 and β1 subunit; read-out: Nav1.7 LBA EVO IC50
Method: Example 93A. Tritiated Compound Binding to Membranes Isolated from Cells that Heterologously Express hNav1.7 and the β1 Subunit
Preparation of membranes containing recombinantly expressed sodium channels: Frozen recombinant cell pellets are thawed on ice and diluted to 4 times the cell pellet weight with ice cold 50 mM Tris HCl, pH 7.4 buffer. The cell suspensions are homogenized on ice using a motorized glass dounce homogeniser. Homogenates are further diluted 8.4 times with ice cold 50 mM Tris HCl, pH 7.4 buffer and then centrifuged at 200×g at 4° C. for 15 minutes. The supernatants are collected and centrifuged at 10000×g at 4° C. for 50 min. The pellets are then re-suspended in 100 mM NaCl, 20 mM Tris HCl, pH 7.4 buffer containing 1% v/v protease inhibitors (Calbiochem) and re-homogenized on ice. The homogenized membranes are then processed through a syringe equipped with a 26 gauge needle. Protein concentrations arer determined by Bradford Assay and the membranes are stored at −80° C.
Saturation experiments. A competitive NaV1.7 inhibitor having a methyl group is tritiated. Three tritiums are incorporated in place of methyl hydrogens to generate [^3H]compound. Binding of this radioligand is performed in 5 mL borosilicate glass test tubes at room temperature. Binding is initiated by adding membranes to increasing concentrations of [^3H]compound in 100 mM NaCl, 20 mM Tris HCl, pH 7.4 buffer containing 0.01% w/v bovine serum albumin (BSA) for 18 h. Non-specific binding is determined in the presence of 1 μM unlabeled compound. After 18 h, the reactants are filtered through GF/C glass fiber filters presoaked in 0.5% w/v polyethylene imine. Filters are washed with 15 mL ice cold 100 mM NaCl, 20 mM Tris HCl, pH7.4 buffer containing 0.25% BSA to separate bound from free ligand. [^3H]compound bound to filters is quantified by liquid scintillation counting.
Binding reactions are performed in 96-well polypropylene plates at room temperature for 18 h. In 360 μL, membranes are incubated with […] [^3H]compound and increasing concentrations of Test Compound. Non-specific binding is defined in the presence of 1 μM unlabeled compound. Reactions are transferred and filtered through 96-well glass fiber/C filter plates presoaked with 0.5% polyethylene imine. The filtered reactions are washed 5 times with 200 μL ice cold buffer containing 0.25% BSA. Bound radioactivity is determined by liquid scintillation counting.
Data Analysis: For saturation experiments, non-specific binding is subtracted from total binding to provide specific binding and these values are recalculated in terms of pmol ligand bound per mg protein. Saturation curves are constructed and dissociation constants are calculated using the single site ligand binding model: Beq=(Bmax*X)/(X+Kd), where Beq is the amount of ligand bound at equilibrium, Bmax is the maximum receptor density, Kd is the dissociation constant for the ligand, and X is the free ligand concentration. For competition studies percent inhibition is determined and IC50 values are calculated using a 4 parameter logistic model (% inhibition=(A+((B−A)/(1+((x/C)^D)))) using XLfit, where A and B are the maximal and minimum inhibition respectively, C is the IC50 concentration and D is the (Hill) slope.
Example 93B. Tritiated Compound Binding to Membranes Isolated from Cells that Heterologous Express hNav1.7 and the β1 Subunit
Following the procedure described in Example 93A, and making modifications as required to: centrifuge supernatants at 100000×g instead of 10000×g; re-suspend pellets in a buffer containing 0.01% BSA in addition to 100 mM NaCl, 20 mM Tris HCl, pH 7.4 buffer, and 1% v/v proteasome inhibitors; and storing membranes at −80° C. in single use aliquots instead of pooled. […]
Target sequence in this assay (Q15858 whole entry, looked up): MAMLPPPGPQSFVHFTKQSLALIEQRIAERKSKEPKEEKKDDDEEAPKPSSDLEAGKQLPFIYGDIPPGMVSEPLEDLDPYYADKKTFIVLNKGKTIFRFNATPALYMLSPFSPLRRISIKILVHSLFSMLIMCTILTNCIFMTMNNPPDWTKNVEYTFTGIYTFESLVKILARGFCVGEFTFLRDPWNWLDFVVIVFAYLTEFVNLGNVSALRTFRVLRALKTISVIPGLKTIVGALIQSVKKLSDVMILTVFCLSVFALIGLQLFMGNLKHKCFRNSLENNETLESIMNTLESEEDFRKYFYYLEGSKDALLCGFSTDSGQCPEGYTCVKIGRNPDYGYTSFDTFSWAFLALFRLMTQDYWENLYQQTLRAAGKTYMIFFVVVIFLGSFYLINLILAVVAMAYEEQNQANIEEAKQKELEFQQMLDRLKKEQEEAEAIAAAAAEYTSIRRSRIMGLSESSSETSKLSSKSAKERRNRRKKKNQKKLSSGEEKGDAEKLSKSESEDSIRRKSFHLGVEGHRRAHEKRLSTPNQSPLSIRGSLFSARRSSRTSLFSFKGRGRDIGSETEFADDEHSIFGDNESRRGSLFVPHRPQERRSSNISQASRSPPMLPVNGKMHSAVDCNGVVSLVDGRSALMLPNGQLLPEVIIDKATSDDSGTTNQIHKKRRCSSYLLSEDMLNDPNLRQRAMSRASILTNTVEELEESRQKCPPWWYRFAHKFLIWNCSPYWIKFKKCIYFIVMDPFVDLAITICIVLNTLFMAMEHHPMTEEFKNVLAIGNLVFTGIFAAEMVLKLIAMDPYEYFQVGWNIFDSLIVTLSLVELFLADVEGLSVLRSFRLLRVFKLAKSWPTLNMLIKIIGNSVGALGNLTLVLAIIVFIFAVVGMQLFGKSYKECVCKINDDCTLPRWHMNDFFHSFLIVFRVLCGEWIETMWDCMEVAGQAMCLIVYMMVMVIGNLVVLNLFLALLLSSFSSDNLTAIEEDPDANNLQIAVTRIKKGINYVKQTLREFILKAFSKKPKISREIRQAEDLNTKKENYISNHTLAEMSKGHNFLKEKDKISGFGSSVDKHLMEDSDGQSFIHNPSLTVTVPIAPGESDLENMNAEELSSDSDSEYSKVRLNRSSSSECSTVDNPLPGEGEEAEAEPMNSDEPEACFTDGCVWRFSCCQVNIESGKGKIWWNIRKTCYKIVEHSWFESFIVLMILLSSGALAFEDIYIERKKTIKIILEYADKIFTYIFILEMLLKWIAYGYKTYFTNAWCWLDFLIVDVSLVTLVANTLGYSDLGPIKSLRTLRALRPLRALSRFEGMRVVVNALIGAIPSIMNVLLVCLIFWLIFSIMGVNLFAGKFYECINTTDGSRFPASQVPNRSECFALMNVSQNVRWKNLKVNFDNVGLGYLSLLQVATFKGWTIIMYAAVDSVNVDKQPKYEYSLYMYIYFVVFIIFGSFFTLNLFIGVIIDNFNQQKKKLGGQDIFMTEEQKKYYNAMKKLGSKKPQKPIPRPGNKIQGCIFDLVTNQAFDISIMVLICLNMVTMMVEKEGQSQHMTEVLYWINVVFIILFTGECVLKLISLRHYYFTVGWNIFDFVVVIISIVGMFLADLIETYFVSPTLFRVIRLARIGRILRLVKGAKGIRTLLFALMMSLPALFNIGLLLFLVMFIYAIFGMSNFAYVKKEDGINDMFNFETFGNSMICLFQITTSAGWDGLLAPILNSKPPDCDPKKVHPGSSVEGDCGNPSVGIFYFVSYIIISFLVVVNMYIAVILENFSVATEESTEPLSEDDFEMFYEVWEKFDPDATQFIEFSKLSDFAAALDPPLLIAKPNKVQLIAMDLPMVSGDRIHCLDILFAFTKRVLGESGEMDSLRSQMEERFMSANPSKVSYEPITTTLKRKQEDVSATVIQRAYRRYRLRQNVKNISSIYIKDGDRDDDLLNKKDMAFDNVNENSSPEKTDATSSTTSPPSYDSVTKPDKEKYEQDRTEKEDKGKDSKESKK
Target sequence in this assay (Q07699 whole entry partner, looked up): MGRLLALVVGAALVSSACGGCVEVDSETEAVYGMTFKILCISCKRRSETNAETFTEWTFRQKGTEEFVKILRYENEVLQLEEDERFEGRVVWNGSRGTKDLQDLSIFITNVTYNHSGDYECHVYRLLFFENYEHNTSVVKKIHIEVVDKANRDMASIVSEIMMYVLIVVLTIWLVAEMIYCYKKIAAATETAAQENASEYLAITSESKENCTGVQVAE

hNav1.7 [2] = biological target: T1, hNav1.7; assay: Electrophysiological assay (EP), voltage clamp on Syncropatch 384PE, CHO cells stably expressing Nav1.7; format: cell-based; conditions: holding potential −50 mV, 7.5 min compound incubation, read-out: EP_SP hNav1.7 EVO IC50
Excerpt: Example 93C. Electrophysiological Assay (EP) (In Vitro Assay)
Patch voltage clamp electrophysiology allows for the direct measurement and quantification of block of voltage-gated sodium channels (NaV's), and allows the determination of the time- and voltage-dependence of block which has been interpreted as differential binding to the resting, open, and inactivated states of the sodium channel (Hille, B., Journal of General Physiology (1977), 69: 497-515).
The following voltage clamp electrophysiology studies are performed on representative compounds using cells heterologously expressing Nav1.7 or Nav1.5 channels. cDNAsfor Nav1.7 (NM_002977) and Nav1.5 (AC137587) are stably expressed in Chinese Hamstr Ovary (CHO) cells and CHL (Chinese Hamster Lung) cells respectively. Sodium currents are measured in the whole-cell configuration using Syncropatch 384PE (Nanlon Technologies, Germany). 1NPC®-384 chips with custom medium resistance and single hole mode are used. Internal solution consists of (in mM): […], 10 […], 20 EGTA, and 10 Hepes (pH adjusted to 7.2); and external solution contains (in mM): 60 NMDG, 80 NaCl, 4 KCl, 1 MgCl2, 2 CaCl2, 2 D-Glucose monohydrate, 10 Hepes (pH adjusted to 7.4 with NaOH).
After system flushing, testing compounds are dissolved in external solution containing 0.1% Pluronic F-127. The chip is moved into the measuring head and the instrument primes the chip with external and internal solutions. 10 μl cells are added to the chip from a cell hotel, and a negative pressure of −50 mBar is applied to form a seal. Following treatment with seal enhancer solution and wash-off with external solution, negative pressure of −250 mbar is applied for 1 second to achieve the whole-cell configuration, followed by three washing steps in external solution. 20 μl of compounds is added to 40 μl in each well (1:3 dilution of compounds), and after mixing, 20 μl is removed so the volume is retained at 40 μl. After approximately 13 minutes recordings, 20 μl/well of 2 uM TTX, or 333 uM Tetracaine (for Nav1.5) is added to achieve full block.
For voltage protocol, an holding potential of −50 mV is applied during the whole experiment. A depolarizing step is applied to −10 mV for 10 ms, followed by a hyperpolarization step to −150 mV for 20 ms to allow channel recovery from inactivation. A second depolarizing step is applied from −150 mV to −10 mV for 10 ms, where currents are measured to derive blocking effects of compounds. Inhibition is determined based on 7.5 min of compound incubation.
Target sequence in this assay (Q15858 other isoform, or with tags, fused parts or gaps): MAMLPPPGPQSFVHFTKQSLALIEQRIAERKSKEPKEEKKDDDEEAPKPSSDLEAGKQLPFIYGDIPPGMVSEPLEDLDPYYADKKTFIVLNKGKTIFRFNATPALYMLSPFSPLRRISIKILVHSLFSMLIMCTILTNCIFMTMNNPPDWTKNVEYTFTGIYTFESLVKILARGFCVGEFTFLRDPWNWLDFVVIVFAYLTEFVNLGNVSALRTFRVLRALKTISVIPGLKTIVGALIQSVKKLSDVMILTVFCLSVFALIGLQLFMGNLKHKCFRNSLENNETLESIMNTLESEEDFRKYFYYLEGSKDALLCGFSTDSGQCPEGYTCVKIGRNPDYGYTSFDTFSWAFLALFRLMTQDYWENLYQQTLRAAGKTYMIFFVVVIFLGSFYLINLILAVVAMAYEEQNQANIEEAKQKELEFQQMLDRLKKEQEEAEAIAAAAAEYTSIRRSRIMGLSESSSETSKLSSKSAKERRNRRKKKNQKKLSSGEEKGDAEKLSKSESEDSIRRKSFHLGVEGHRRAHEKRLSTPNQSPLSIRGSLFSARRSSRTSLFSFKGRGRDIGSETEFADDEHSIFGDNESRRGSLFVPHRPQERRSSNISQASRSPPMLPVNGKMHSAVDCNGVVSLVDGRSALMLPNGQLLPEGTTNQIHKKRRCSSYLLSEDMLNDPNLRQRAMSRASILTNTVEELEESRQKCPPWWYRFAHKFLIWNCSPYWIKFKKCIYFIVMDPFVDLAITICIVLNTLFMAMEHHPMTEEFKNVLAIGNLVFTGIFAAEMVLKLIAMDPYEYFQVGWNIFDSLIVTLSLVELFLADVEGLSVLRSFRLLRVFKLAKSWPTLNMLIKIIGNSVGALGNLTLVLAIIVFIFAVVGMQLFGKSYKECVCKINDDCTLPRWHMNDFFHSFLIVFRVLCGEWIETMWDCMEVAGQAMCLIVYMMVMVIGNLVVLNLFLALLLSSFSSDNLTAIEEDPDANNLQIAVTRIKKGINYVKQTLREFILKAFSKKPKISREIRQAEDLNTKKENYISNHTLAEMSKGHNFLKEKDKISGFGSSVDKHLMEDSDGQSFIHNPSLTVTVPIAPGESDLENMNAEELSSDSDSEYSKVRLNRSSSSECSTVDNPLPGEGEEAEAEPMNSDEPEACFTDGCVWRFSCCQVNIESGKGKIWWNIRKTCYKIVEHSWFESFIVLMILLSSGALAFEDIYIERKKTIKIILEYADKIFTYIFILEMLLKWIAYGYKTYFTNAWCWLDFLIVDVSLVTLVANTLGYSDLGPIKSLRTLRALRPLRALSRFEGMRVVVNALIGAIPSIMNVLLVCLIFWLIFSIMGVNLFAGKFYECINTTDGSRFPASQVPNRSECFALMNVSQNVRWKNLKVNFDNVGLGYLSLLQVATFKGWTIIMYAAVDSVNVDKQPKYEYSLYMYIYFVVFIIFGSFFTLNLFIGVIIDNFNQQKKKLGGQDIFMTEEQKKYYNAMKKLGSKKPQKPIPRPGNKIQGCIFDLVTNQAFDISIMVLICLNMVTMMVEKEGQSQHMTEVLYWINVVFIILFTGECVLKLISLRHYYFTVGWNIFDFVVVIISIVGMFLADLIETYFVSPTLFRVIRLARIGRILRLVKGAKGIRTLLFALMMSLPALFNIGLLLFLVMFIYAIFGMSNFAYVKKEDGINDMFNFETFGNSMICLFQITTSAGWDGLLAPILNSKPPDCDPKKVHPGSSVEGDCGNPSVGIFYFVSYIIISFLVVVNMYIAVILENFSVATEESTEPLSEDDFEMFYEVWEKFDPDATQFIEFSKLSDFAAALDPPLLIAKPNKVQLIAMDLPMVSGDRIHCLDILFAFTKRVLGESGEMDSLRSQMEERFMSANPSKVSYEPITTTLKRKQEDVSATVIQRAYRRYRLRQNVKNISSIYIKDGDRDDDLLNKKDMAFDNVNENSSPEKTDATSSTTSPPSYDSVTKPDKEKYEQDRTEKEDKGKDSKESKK

| IC50 (hNav1.7 [1]) [nM] | IC50 (hNav1.7 [2]) [nM] | Compound |
| --- | --- | --- |
| 309 | 144 | CN(C)[C@@H]1C[C@](O)(c2cccc(C(F)(F)F)c2)CC[C@H]1Nc1cc(F)c(S(=O)(=O)Nc2ccncn2)cc1Cl (single isomer, unassigned) [Example 36, formate] |
| ≥ 2000 | 371 | CN(C)[C@H]1C[C@](O)(c2cccc(C(F)(F)F)c2)CC[C@@H]1Nc1cc(F)c(S(=O)(=O)Nc2ccncn2)cc1Cl (single isomer, unassigned) [Example 37] |
| ≥ 2000 | 9440 | CN(C)[C@@H]1C[C@@](O)(c2cccc(C(F)(F)F)c2)CC[C@H]1Nc1cc(F)c(S(=O)(=O)Nc2ccncn2)cc1Cl (single isomer, unassigned) [Example 38, formate] |
| 643 | 211 | CN(C)[C@H]1C[C@@H](c2ccccc2C(F)(F)F)CC[C@@H]1Nc1cc(F)c(S(=O)(=O)Nc2ccncn2)cc1Cl (single isomer, unassigned) [Example 77] |
| 12.2 | 1.37 | CN(C)[C@@H]1C[C@H](c2ccccc2C(F)(F)F)CC[C@H]1Nc1cc(F)c(S(=O)(=O)Nc2ccncn2)cc1Cl (single isomer, unassigned) [Example 78] |
| 0.686 | 1.01 | CN(C)[C@H]1C[C@@H](c2cccc(C(F)(F)F)c2)CC[C@@H]1N1CCOc2cc(S(=O)(=O)Nc3ccncn3)c(F)cc21 [Example 2, 4-((1S,2S,4S)-2-(Dimethylamino)-4-(3-(trifluoromethyl)phenyl)cyclohexyl)-6-fluoro-N-(pyrimidin-4-yl)-3,4-dihydro-2H-benzo[b][1,4]oxazine-7-sulfonamide formate] |
| 83.1 | 26.2 | CN(C)[C@H]1C[C@@H](c2cccc(C(F)(F)F)c2)CC[C@@H]1n1c(=O)oc2cc(S(=O)(=O)Nc3ccncn3)c(F)cc21 [Example 3, 3-((1S,2S,4S)-2-(Dimethylamino)-4-(3-(trifluoromethyl)phenyl)cyclohexyl)-5-fluoro-2-oxo-N-(pyrimidin-4-yl)-2,3-dihydrobenzo[d]oxazole-6-sulfonamide formate] |
| 1.2 | 0.305 | CN(C)[C@H]1C[C@@H](c2ccc(Cl)c(Cl)c2)CC[C@@H]1Nc1cc(F)c(S(=O)(=O)Nc2ccncn2)cc1Cl [Example 4, 5-Chloro-4-(((1S,2S,4S)-4-(3,4-dichlorophenyl)-2-(dimethylamino)cyclohexyl)amino)-2-fluoro-N-(pyrimidin-4-yl)benzenesulfonamide] |
| 1.37 | 0.519 | CN(C)[C@H]1C[C@@H](c2cccc(C(F)(F)F)c2)CC[C@@H]1Nc1cc(F)c(S(=O)(=O)Nc2ccncn2)cc1OC(F)F [Example 5, 5-(Difluoromethoxy)-4-(((1S,2S,4S)-2-(dimethylamino)-4-(3-(trifluoromethyl)phenyl)-cyclohexyl)amino)-2-fluoro-N-(pyrimidin-4-yl)benzenesulfonamide formate] |
| 0.791 | 0.765 | CN(C)[C@H]1C[C@@H](c2ccc(F)c(C(F)(F)F)c2)CC[C@@H]1Nc1cc(F)c(S(=O)(=O)Nc2ccncn2)cc1Cl [Example 6, 5-chloro-4-(((1S,2S,4S)-2-(dimethylamino)-4-(4-fluoro-3-(trifluoromethyl)phenyl)-cyclohexyl)amino)-2-fluoro-N-(pyrimidin-4-yl)benzenesulfonamide] |
| 0.52 | 0.327 | CN(C)[C@H]1C[C@@H](c2ccc(Cl)c(C(F)(F)F)c2)CC[C@@H]1Nc1cc(F)c(S(=O)(=O)Nc2ccncn2)cc1Cl [Example 7] |
| 6.45 | 0.991 | CN(C)[C@H]1C[C@@H](Cc2cccc(C(F)(F)F)c2)CC[C@@H]1Nc1cc(F)c(S(=O)(=O)Nc2ccncn2)cc1Cl [Example 8, 5-chloro-4-(((1S,2S,4R)-2-(dimethylamino)-4-(3-(trifluoromethyl)benzyl)cyclohexyl)amino)-2-fluoro-N-(pyrimidin-4-yl)benzenesulfonamide] |
| 12.4 |  | CN(C)[C@H]1C[C@@H](c2cccc(C(F)(F)F)c2)CC[C@@H]1Nc1ccc(S(=O)(=O)Nc2ccncn2)cc1F [Example 89, 4-(((1S,2S,4S)-2-(Dimethylamino)-4-(3-(trifluoromethyl)phenyl)cyclohexyl)amino)-3-fluoro-N-(pyrimidin-4-yl)benzenesulfonamide formate] |
|  | 0.57 | O=S(=O)(Nc1ccncn1)c1cc(Cl)c(O[C@H]2CC[C@H](c3cccc(C(F)(F)F)c3)C[C@@H]2N2CCC(O)C2)cc1F (stereo partly shown) [Example 90, formate] |

| Compound | IC50 (hNav1.7 [1]) [nM] | IC50 (hNav1.7 [2]) [nM] |
| --- | --- | --- |
| 4-(((1S,2S,4S)-2-(azetidin-3-yl(methyl)amino)-4-(3-(trifluoromethyl)phenyl)cyclohexyl)oxy)-5-chloro-2-fluoro-N-(pyrimidin-4-yl)benzenesulfonamide [Example 80] | 0.39 | 0.317 |
| 5-Chloro-4-(((1S,3R,4R,6R)-7,7-dichloro-4-(dimethylamino)-6-(3-(trifluoromethyl)-phenyl)bicyclo[4.1.0]heptan-3-yl)amino)-2-fluoro-N-(pyrimidin-4-yl)benzenesulfonamide [Example 53] | 46.2 | 1.86 |
| 5-Chloro-4-(((3 S,4S,6S)-7,7-dichloro-4-(dimethylamino)-6-(3-(trifluoromethyl)phenyl)-bicyclo[4.1.0]heptan-3-yl)amino)-2-fluoro-N-(pyrimidin-4-yl)benzenesulfonamide [Example 52] | 2000 | 496 |
| CN(C)[C@H]1C[C@@H](c2cccc(C(F)(F)F)c2)CC[C@@H]1N1C(=O)COc2cc(S(=O)(=O)Nc3ccncn3)c(F)cc21 [Example 1, 4-((1S,2S,4S)-2-(Dimethylamino)-4-(3-(trifluoromethyl)phenyl)cyclohexyl)-6-fluoro-3-oxo-N-(pyrimidin-4-yl)-3,4-dihydro-2H-benzo[b][1,4]oxazine-7-sulfonamide formate] | 18.8 | 3.13 |
